{
  "source": "patent US8906865B2",
  "about": "“Treatment of inflammation and/or endotoxic shock” (ISIS Innovation Limited, priority 2007, dated 2014)",
  "key": {"[1]": {"test_system": "PMΦ (peritoneal macrophages)", "assay": "Macrophage chemotaxis assay (modified Boyden chamber)", "assay_type": "cell-based, mouse", "settings": "for Macrophage chemotactic activity: migration over 4 h, compared with C140 and RANTES 25 ng/ml", "method": "PMθ (0.5×10^6) were allowed to migrate towards chemoattractant (Chemerin140 or Chemerin peptides) in the bottom well of a modified Boyden chamber over 4 h. Filters were fixed in 4% formalin, then migrated cell nuclei were stained with DAPI and visualised. Serum free media (SFM) were used as a negative control and the macrophage chemoattractant RANTES (25 ng/ml; 3 nM) as a positive control. The graphs indicate mean Migration Index (Chemoattractant % threshold area/SFM % threshold area)±SEM for each treatment group (n=5-6). p<0.001 ***; p<0.01 **; p<0.05 * relative to SFM treated wells.\nPMθ were recruited following a 4 day peritoneal stimulation with BioGEL beads. Peritoneal cavities of male C57B16/J mice were lavaged with 5 ml PBS-2 mM EDTA. Cells were centrifuged and resuspended in RPMI supplemented with 0.5% BSA and 25 mM Hepes. Cells (0.5×10^6) were allowed to migrate towards chemoattractant (C140, C17m or C17m+C140) in the bottom well over 4 h. Filters were fixed in 4% formalin, then nuclei were stained with DAPI and visualised. Serum free media was used as a negative control (−/−). Cells were preincubated with Pertussis toxin (PTX) for 30 mins before the chemotaxis assay. The bar graphs in FIG. 11 show the mean Migration Index±SEM for each treatment group. Each bar represents at least triplicate wells and at least 3 pictures taken per treatment. p<0.001 ***; p<0.01 **; p<0.05 * relative to SFM treated wells unless otherwise stated.\nCell migration was assessed by use of transwell membranes (ChemoTX, 6-mm diameter, 8-μm pore size). Briefly, BioGEL-elicited cells were harvested and placed on transwell membranes (250 000 cells/membrane in RPMI supplemented with 25 mM Hepes and 0.1% bovine serum albumin. Cells were allowed to migrate toward Chemerin peptides (1 pM-100 nM) for 4 h. Signal transduction via G protein-coupled receptors was blocked by preincubating cells with pertussis toxin (PTX, 200 ng/ml, Sigma-Aldrich) for 30 mins before placing cells on transwell membranes. Migrated cells on the underside of membranes were fixed (3% formaldehyde) and stained with DAPI. Migration was quantified as total pixel count of DAPI stained nuclei under the confocal microscope (2 photos/membrane and a minimum of 3 replicate wells per treatment). Images were analyzed using Metamorph Offline software to determine percentage threshold areas (TA) occupied by migrated cells. Migration indices were obtained by dividing treatment TA by serum-free media TA. For secondary chemotaxis assays ChemoTx 3-mm diameter, 8-μm pore membranes were used with 50 000 cells/membrane."}, "C57B16/J mice": {"test_system": "C57B16/J mice", "assay": "Intraperitoneal Chemerin15-mouse alone (no zymosan): peritoneal cell recruitment and TNFα", "assay_type": "in vivo", "settings": "0.32 ng/kg i.p., 4 h", "method": "Male C57B16/J mice (8-12 weeks) were injected intra-peritoneally with 0.5 ml PBS or 0.5 ml Chemerin15-mouse (0.32 ng/kg). After 4 hours three animals per treatment group were sacrificed and peritoneal cavities washed with 5 ml PBS-3 mM EDTA. Total cell counts were obtained using Trypan blue exclusion test. For determination of cellular composition (Neutrophils vs mononuclear phagocytes), cells were blocked with 2.4G2 anti-FcgRII/III mAB for 5 mins and stained with PE-conjugated anti-mouse Ly-6G and FITC-conjugated anti-mouse 7/4 mAB for 10 mins. Cells were fixed in 1% formaldehyde prior to FACS analysis with CellQuest software. Gates were constructed around two populations, the neutrophils (N; 7/4^high, Ly-6G^high) and inflammatory monocytes (Mo; 7/4^high, Ly-6G^low). C15 refer to Chemerin15-mouse. p<0.01 ** relative to PBS-treated. Ns refers to no statistically significant difference p>0.05."}, "peritoneal macrophages": {"test_system": "peritoneal macrophages", "assay": "Zymosan recognition / phagocytosis by macrophages (FITC-zymosan, FACS)", "assay_type": "cell-based, mouse", "method": "For in vitro recognition of zymosan by macrophages, peritoneal exudate cells were isolated by lavage with ice-cold 2 mM EDTA in PBS from mice that had been treated intraperitoneally 4 d before with Biogel beads (2% w/v). Macrophages were plated in 24-well plates at a density of 2.5×10^5 cells per well in Optimem medium. Cells were washed three times with medium before the addition of Fluorescein isothiocyanate (FITC)-labeled zymosan (Invitrogen) in recognition assays at macrophage/particle ratios of 10:1 in the presence of either 0.1 pM, 1 pM, 10 pM, 100 pM or 1 nM Chemerin15. Vehicle=control sample without Chemerin15. FITC-zymosan uptake was followed by FACS analysis and is expressed as a relative recognition index i.e the ratio of %® cells uptaking zymosan×the ratio of geometric means C15 treated macrophages/geometric mean of macrophages treated with vehicle."}, "[2]": {"test_system": "C57B16/J mice, zymosan-induced peritonitis", "assay": "Zymosan-induced peritonitis in mice", "assay_type": "in vivo, mouse", "settings": "single i.p. dose; 4 h post-zymosan"}, "[3]": {"test_system": "Murine peritoneal macrophages (PMΦ)", "assay": "Macrophage cytokine mRNA levels by qRT-PCR (IL-10, TGFβ), normalized to HPRT", "assay_type": "cell-based, mouse", "settings": "chemerin", "method": "FIGS. 1A-F—FIGS. 1A and 1B illustrate that Chemerin140 suppresses production of inflammatory mediators by macrophages in a proteolysis dependent fashion. Supernatants from macrophages or activated macrophages (treated with 100 ng/ml LPS and 20 ng/ml interferon gamma were assayed for cytokine expression using Luminex and ELISA assays. Cells were incubated in the presence or absence of recombinant murine chemerin or dexamethasone at the indicated doses and in the absence or presence of the protease inhibitor leupeptin ([…]). FIG. 1C—Macrophage cytokine mRNA levels were quantitated by qRT-PCR (IL-10, TGFβ) and normalized to HPRT. FIG. 1D—PMΦ were pre-treated with chemerin (0.1-1 pM)±pertussis toxin (PTX; 200 ng/ml) prior to LPS/IFNγ-challenge. FIG. 1E—PMΦ were pre-treated with chemerin (1 pM) for 1 h±PTX and then stimulated with LPS/IFNγ for 4 h, 8 h or 15 h. ***, p<0.001; **, p<0.01; *, p<0.05 relative to LPS/IFNγ-treated samples. ###, p<0.001; ##, p<0.01; #, p<0.05 relative to chemerin-treated samples. […]\nTotal RNA was extracted using Qiagen RNeasy kits, reverse transcribed and subjected to qRT-PCR using the Sybr-Green method. Data was analysed using the 2-ΔΔCT method (Livak, K. J. & Schmittgen T. D. (2001), Methods 25:402-408)."}},
  "data": [
    {"molecule": "AGEDPHGYFLPGQFA (listed as Mus sp.) [C15]", "values": [
      {"measurement": "Macrophage chemotactic activity", "setting": "[1]", "value": "little chemotactic activity"},
      {"measurement": "Concentration of maximal macrophage migration", "setting": "[1]; tested 1 pM-100 nM", "value": 100, "unit": "pM"},
      {"measurement": "Monocyte or neutrophil migration after peptide alone (FIG. 9)", "setting": "C57B16/J mice", "value": "does not cause monocyte or neutrophil migration"},
      {"measurement": "Peritoneal TNFα after peptide alone (FIG. 9)", "setting": "C57B16/J mice", "value": "significant reduction in TNFα"},
      {"measurement": "Macrophage phagocytosis of zymosan (FIG. 15)", "setting": "peritoneal macrophages; 0.1 pM-1 nM, FITC-zymosan", "value": "induces macrophage phagocytosis of zymosan"},
      {"measurement": "Concentration of greatest induction of macrophage phagocytosis", "setting": "peritoneal macrophages; tested 0.1 pM-1 nM", "value": 10, "unit": "pM"},
      {"measurement": "Lowest dose with significant anti-inflammatory effects (FIG. 14B)", "setting": "[2]", "value": 4, "unit": "pg/mouse"}
    ]},
    {"molecule": "AGEDPHGYFLPGQFAFS (listed as Mus sp.) [C17m]", "values": [
      {"measurement": "Effect of co-administration on C140-induced macrophage migration (FIG. 11)", "setting": "[1]; C17m + C140 in bottom well, 4 h", "value": "did not appear to affect macrophage migration to C140"},
      {"measurement": "Macrophage chemotactic activity", "setting": "[1]", "value": "no chemotactic activity"}
    ]},
    {"molecule": "Chemerin: 140 amino acid mouse Chemerin protein of Sequence ID no: 34 (protein, listed as Mus sp.) TVGTEPELSETQRRSLQVALEEFHKHPPVQLAFQEIGVDRAEEVLFSAGTFVRLEFKLQQTNCPKKDWKKPECTIKPNGRRRKCLACIKMDPKGKILGRIVHCPILKQGPQDPQELQCIKIAQAGEDPHGYFLPGQFAFS", "values": [
      {"measurement": "Induction of IL-10 mRNA expression (FIG. 1C)", "setting": "[3]", "value": 89, "unit": "%"},
      {"measurement": "Induction of TGFβ mRNA expression (FIG. 1C)", "setting": "[3]", "value": 54, "unit": "%"}
    ]}
  ]
}
